From US20110281852A1 (priority 2010, published 2011)

What was measured:
GATA-2 = assay: Immunoblot, GATA-2 protein in HWP; format: cell-based, human; details: day 15
Method: Immunoblot Analysis: Protein expression of GATA-2, GATA-3, PPARγ and C/EBPα were assessed by Western Blot. Total proteins were isolated from HWP treated with compounds or vehicles on day 15. The cells were washed twice with PBS, lysed in a lysis buffer containing HEPES-Tx-PI buffer: […] HEPES, 5 mM EDTA, 350 mM Sucrose, 1 μg/ml leupeptin, 1 μg/ml pepstatin, 1% Triton-X, 1 mM PMSF), processed with a 25G needle and centrifuged at 10,000 rpm for 5 min. Protein concentration was determined using the Micro BCA Protein Assay Kit (Fisher Scientific, Pittsburgh, Pa., USA) according to the manufacturers instructions. 20 μg proteins were loaded and separated by electrophoresis using the BioRad Electrophoretic System (60 V for 1 hour followed by 90 V for 5 hours). The proteins were then transferred to nitrocellulose membranes at 35 V overnight. The membrane was blocked for 1 hour at room temperature in 5% nonfat milk in Tris-buffered saline (TBS), then washed with Tween-20-TBS (TTBS, 0.1% Tween-20) three times (15 min, 5 min, 5 min), followed by incubation with primary antibodies human GATA-2, GATA-3, PPARγ, C/EBPα and β-actin (dilution 1:200) (all antibodies were purchased from Santa Cruz Biotechnology, Santa Cruz, Calif., USA) at room temperature for 2 hours. The membrane was rinsed three times (15 min, 5 min, 5 min), then incubated at room temperature for 1 hour with Horseradish peroxidase-conjugated second antibody (1:10,000). The membrane was then incubated in ECL reagent (GE Healthcare, Piscataway, N.J., USA) for 1 minute. Protein was visualized using the UVP image analysis system (UVP, Upland, Calif., USA).

C/EBPα = assay: Immunoblot, C/EBPα protein in epididymal fat of FD mice; format: in vivo, mouse; details: berberine treatment
Method: RNA and protein purification and quantification from epididymal fat tissues: RNA and protein was isolated from 60 mg of epididymal fat tissues with Trizol (Invitrogen, Carlsbad, Calif., USA) following the protocol recommended by the manufacturers. RNA was dissolved in pure water and quantified at 260/280 nm, and sample integrity was checked by 1.5% agarose gel electrophoresis. Protein concentration was determined using the Micro BCA Protein Assay Kit (Fisher Scientific, Pittsburgh, Pa., USA) according to the manufacturer's instructions.
Immunoblot Analysis: Protein expression of GATA-2, GATA-3, PPARγ and C/EBPα in the control of β-actin was assessed by Western Blot. Protein samples from the same group were homogenized as previously reported (Hu and Davies, Phytomedicine (2009) 16:864-873). Protein (25 μg) was separated by polyacrylamide gel electrophoresis using the BioRad Electrophoretic System (60 V for 1 h followed by 90 V for 5 h). The proteins were then transferred to nitrocellulose membranes at 35 V overnight. […]

[1] = Serum glucose assay in mice; format: in vivo, mouse
Method: Six mice per subgroup were obtained finally.
Serum glucose, triglyceride, cholesterol assay: Blood samples from each mouse were collected and serum was separated by centrifugation for the measurement of levels of glucose, triglyceride and total cholesterol. Serum glucose concentrations were analyzed using Glucose (HK) Assay Kit (Sigma-aldrich, Saint Louis, Mo., USA). Serum triglyceride concentrations were analyzed using Serum Triglyceride Determination Kit (Sigma-aldrich, Saint Louis, Mo., USA). Serum cholesterol concentrations were analyzed using Amplex® Red Cholesterol Assay Kit (Invitrogen, Carlsbad, Calif., USA). All experimental assays were done according to the manufacturer's instructions.

| Compound | GATA-2 protein expression relative to β-actin, normalized with controls (GATA-2; 1 μM) | GATA-2 protein expression relative to β-actin, normalized with controls (GATA-2; 2 μM) | GATA-2 protein expression relative to β-actin, normalized with controls (GATA-2; 4 μM) | quantitative protein expression of CEBP-α (C/EBPα) | reduction of serum glucose level vs control treated subgroup ([1]; FD mice, 0.75 mg/kg/day) | fasting serum glucose level ([1]; FD mice, 0.75 mg/kg/day, 36 days (control 195.4±27.3)) | reduction of serum glucose level vs control treated subgroup ([1]; FD mice, 1.5 mg/kg/day) | fasting serum glucose level ([1]; FD mice, 1.5 mg/kg/day, 36 days) | reduction of serum glucose level vs control treated subgroup ([1]; FD mice, 3 mg/kg/day) | fasting serum glucose level ([1]; FD mice, 3 mg/kg/day, 36 days) | fasting serum glucose level ([1]; ND mice, 3 mg/kg/day (control 120.6±27.5)) |
| --- | --- | --- | --- | --- | --- | --- | --- | --- | --- | --- | --- |
| evodiamine | 2.44 fold | 4.81 fold | 4.92 fold |  |  |  |  |  |  |  |  |
| COc1ccc2cc3[n+](cc2c1OC)CCc1cc2c(cc1-3)OCO2.[Cl-] [berberine, Berberine (Chloride Form)] |  |  |  | did not appear to be significantly changed | 19.5% | 157.3 ± 22.5 mg/dL | 22.3% | 151.8 ± 21.1 mg/dL | 26.5% | 143.5 ± 12.7 mg/dL | 130.9 ± 16.2 mg/dL |
